# Source: paper PMC10384639, “Increased In Vivo Exposure of N-(4-Hydroxyphenyl) Retinamide (4-HPR) to Achieve Plasma Concentrations Effective against Dengue Virus” (Pharmaceutics, 2023)
# Where “and” joins values, the source holds several entries; their conditions need not be identical. Equal values may be shown once. Read-outs that look alike come from different tables or passages of the source.
# Tests used:
# [1] = tested on: DENV2; design: method as in PMID 25313218; settings: b.i.d 180 mg/kg, AG129 mouse viremia model; cited from earlier work
# [2] = Single-dose IV PK of 4-HPR in mice with and without ABT; format: in vivo, male C57Bl/6 mice; settings: for half-life / AUC(0-inf) / clearance / Vd: plasma; for half-life: read-out: Apparent t1/2 (converted); for AUC(0-inf): read-out: Plasma AUC0-inf; for Vd: read-out: Plasma VSS
# Experimental: C57Bl/6 mice (22.6–28.7 g) having access to food and water ad libitum throughout the pre- and post-dose sampling period were dosed with 4-HPR either orally by gavage (2–10 mL/kg, depending upon formulation) or IV by bolus injection into the lateral tail vein (50 μL/animal, 2 mL/kg), and blood samples were collected up to 49 h post-dose by either submandibular bleed or terminal cardiac puncture (n = 3–5 mice per timepoint for each formulation) with a maximum of four samples from each mouse. Blood samples were mixed with heparin, potassium fluoride and complete protease inhibitor cocktail (Roche Diagnostics, Mannheim, Germany), centrifuged and supernatant plasma was removed and stored at −80 °C until analysis by LC-MS. Specifics of formulations used in PK experiments are detailed in Supplementary Table S1.
# For in vivo CYP inhibition experiments, repeat oral doses of ABT (50 mg/kg b.i.d commencing 4 h before 4-HPR administration, 5 mL/kg by gavage) were administered according to a regimen shown to maintain ongoing CYP inhibition. Blood samples were collected from ABT-treated mice for up to 72 h after dosing 4-HPR.
# For 4-HPR quantification, proteins were precipitated from plasma samples using acetonitrile (2-fold volume ratio) prior to analysis using a Waters Acquity Ultra-High Performance Liquid Chromatography (UHPLC) system coupled to a Waters Xevo TQ MS system (Waters Corporation, Milford, MA, USA). Chromatographic separation was performed using a C8 reverse phase column (Ascentis Express RP C8, 50 × 2.1 mm, 2.7 μm, Merck KGaA, Darmstadt, Germany) and a 3 μL injection volume. Gradient elution (methanol-water gradient with 0.05% formic acid) was performed at a flow rate of 0.4 mL/min, cycle time of 4 min, with detection by positive electrospray ionisation in multiple-reaction monitoring mode. Then, 4-HPR standards (10,000–0.5 ng/mL) were prepared in blank plasma, with diazepam as an internal standard (10 μL of 5 μg/mL in 50% acetonitrile/water per sample). For 4-HPR, the retention time was 2.97 min, m/z transition 392.23 > 161.15, cone voltage 30 V and CID 20 V.
# The dose administered to each mouse was calculated on the basis of the pre-dose body weight, the volume of formulation administered, and the 4-HPR concentration in the formulation. The plasma concentration versus time profile was defined by the average plasma concentration at each sample time, and PK parameters were calculated using non-compartmental methods (PKSolver Version 2.0) using the average dose administered to the dosing group.
# To illustrate the differences in 4-HPR plasma exposure profiles that would be expected in mice upon repeat-dose administration (b.i.d, 10 h/14 h at 20 mg/kg) of the different formulations, profiles were simulated using a simple compartmental PK approach. Initially, a linear 2-compartment model was fitted (PKSolver, Version 2.0) to the mean plasma concentration-time profile obtained after bolus IV administration of 4-HPR. The parameter estimates thus obtained (i.e., V1, k10, k12 and k21—see Supplementary Table S2) were considered to define the systemic disposition of 4-HPR and were fixed during simulation of the oral profiles. Oral profiles were simulated using a differential equation-based compartmental model scripted in Berkeley Madonna (version 8.3.1.8). Systemic disposition parameters were fixed as described above, under the assumption that the post-absorption distribution and elimination of 4-HPR was independent of the formulation administered. Bioavailability was fixed at the value determined by non-compartmental analysis, and the first order rate constant for compound absorption was manually varied until the simulated concentration-time profile was in close agreement with the experimental concentration-time data obtained after single-dose administration of pre-dispersed lipid formulation. […] These were obtained by setting the bioavailability (F) to the value determined for each formulation by non-compartmental analysis.
# [3] = Stability in diluted plasma matrix; format: in vitro ADME; settings: diluted human plasma (10% v/v in pH 7.4 PBS)
# Experimental: (§1) Protein binding of 4-HPR was assessed in human (pooled, Innovative Research Inc., Novi, MI, USA) and mouse (collected in-house from male C57BL6 mice) plasma via Rapid Equilibrium Dialysis (RED) using pre-saturated dialysis units as previously. Briefly, RED inserts were pre-saturated overnight with 400 ng/mL 4-HPR in PBS, after which solutions were removed and discarded, and 300 µL aliquots of diluted human or mouse plasma (10% v/v in pH 7.4 PBS) containing 4-HPR (2000 ng/mL) were added to the donor chamber of the RED inserts (n = 4/matrix) and dialysed against 500 µL of PBS (containing 40 ng/mL 4-HPR). During the 24 h dialysis period, the RED system was sealed with a gas impermeable film, and the plate was maintained at 37 °C under ambient atmosphere in an orbital plate shaker set at 800 rpm (ThermoMixer C; Eppendorf, Hamburg, Germany). At the end of the dialysis period, aliquots were taken from each donor and dialysate chamber to obtain post-dialysis measures of the total and unbound 4-HPR concentrations, respectively. The measured pH of pre- and post-dialysis donor matrix and dialysate buffer was within pH 7.4 ± 0.1.
# [4] = tested on: ZIKV; design: method as in PMID 33439253; settings: read-out: In vitro EC50; cited from earlier work
# [5] = tested on: DENV; settings: cited from earlier work
# [6] = Stability in diluted plasma matrix; format: in vitro ADME; settings: diluted mouse plasma (10% v/v in pH 7.4 PBS)
# [7] = Plasma protein binding by Rapid Equilibrium Dialysis; format: in vitro ADME; settings: 37 °C, corrected for dilution; for % Bound / Fraction Unbound 4-HPR: RED 24 h; for fraction unbound at 24 h, 2000 ng/mL: pH 7.4, RED 24 h, read-out: % Bound
# Experimental: as §1
# Donor and dialysate samples were processed and analysed using a matrix matching approach, and all samples were stored frozen at −80 °C until analysis by LC-MS. Compound binding was assessed on the basis of the measured concentrations in dialysate and donor samples at the end of the dialysis period, assuming that the system was at steady state by 24 h. As the binding assay was performed using diluted plasma, data were corrected for the dilution factor to give a binding value for neat plasma via an established approach which accounts for the shift in equilibria that occurs with protein dilution.
# [8] = tested on: DENV; design: method as in PMID 24903662; settings: b.i.d 20 mg/kg 4-HPR, lethal ADE DENV infection; cited from earlier work
# [9] = Equilibrium solubility of 4-HPR in excipients and lipid-based formulations; format: physicochemical
# Experimental: Excipients were weighed directly into glass vials at the indicated concentrations, mixed thoroughly, then transferred to Eppendorf tubes and loaded with an excess of 4-HPR. Formulations were then heated to 37 °C, vortexed extensively (initially every hour) and agitated with a stirrer and incubated at 37 °C in a shaking incubator. Periodically (every 1–3 days), undissolved drug was removed from the formulation by centrifugation (20 min at 2100× g, 37 °C) and 20 mg of supernatant was transferred to new tubes for quantification by UHPLC (stored at −20 °C), with the remaining formulation vortexed and agitated vigorously incubated at 37 °C in a shaking incubator until the next sampling. Samples were dissolved in 1 mL 1:1 chloroform:methanol, then diluted 1:100 in acetonitrile.
# In this case, the UHPLC assay used a Shimadzu Nexera X2 UHPLC system (Shimadzu Corporation, Kyoto, Japan), with chromatographic separation on a C18 reverse phase column (Kinetex 2.6 μm C18 100 Å, LC Column 50 × 2.1 mm, Phenomenex Inc., Torrance, CA, USA) at 30 °C, with samples stored at 10 °C in the autosampler until injection (3 μL volume). Isocratic elution (79.95% acetonitrile, 19.95% H2O, 0.1% formic acid) was performed at a flow rate of 0.3 mL/min, with absorbance measured by the photodiode array detector. Then, 4-HPR standards (50–0.521 μg/mL) were created by successive serial dilution of a 50 μg/mL stock standard in acetonitrile, with area under curve at absorbance of 365 nm used to generate a standard curve using LabSolutions software V.5.82.
# [10] = male, C57Bl/6, mouse, in vivo, iv
# [11] = male, C57Bl/6, mouse, iv, 2 mg/kg, single-dose 2 mg/kg IV, +ABT (50 mg/kg, b.i.d)
# [12] = male, C57Bl/6, mouse, iv, 2 mg/kg, single-dose 2 mg/kg IV, −ABT
smiles,measurement,setting,value
"CC1=C(/C=C/C(C)=C/C=C/C(C)=C/C(=O)Nc2ccc(O)cc2)C(C)(C)CCC1 [4-HPR, N-(4-hydroxyphenyl) retinamide]",Reduction of DENV2 viremia,[1],> 50 fold
same,Fold increase in exposure with ABT treatment after IV dosage,"[2]; IV 2 mg/kg, +ABT versus −ABT",0.2 fold
same,V1 (2-compartment model estimate),"[2]; fit to IV data, −ABT",0.233 L/kg
same,k21 (2-compartment model estimate),"[2]; fit to IV data, −ABT",0.561 h⁻¹
same,k10 (2-compartment model estimate),[2]; [10],1.20 h⁻¹
same,k12 (2-compartment model estimate),[2]; [10],5.42 h⁻¹
same,half-life,[2]; [11],12.1 h
same,AUC(0-inf),[2]; [11],24.5 µM·h
same,clearance,"[2]; male, C57Bl/6, mouse, iv, 2 mg/kg, single-dose 2 mg/kg IV, +ABT (50 mg/kg, b.i.d), read-out: Plasma CL",3.6 mL/min/kg
same,Vd,[2]; [11],3.2 L/kg
same,half-life,"[2]; male, C57Bl/6, mouse, iv, 2 mg/kg, single-dose 2 mg/kg IV, −ABT, 10% DMSO, 90% PEG400",8.1 h
same,AUC(0-inf),[2]; [12],21.6 µM·h
same,clearance,"[2]; male, C57Bl/6, mouse, iv, 2 mg/kg, single-dose 2 mg/kg IV, −ABT, read-out: Plasma CL",4.1 mL/min/kg
same,Vd,[2]; [12],1.9 L/kg
same,clearance,"[2]; male, C57Bl/6, mouse, iv, observed under both conditions (±ABT), read-out: In vivo systemic clearance",4.4 mL/min/kg
same,Stability in diluted plasma,[3],no evidence of any degradation
same,EC50,[4],1000 to 2000 nM
same,EC50,"[5]; DENV, read-out: In vitro EC50",1000 to 2000 nM
same,EC50,"[5]; all four infectious DENV strains in vitro, read-out: EC50",~1000 nM
same,Stability in diluted plasma,[6],no evidence of any degradation
same,% Bound,[7]; human plasma,> 99.95%
same,Fraction Unbound 4-HPR,[7]; human plasma,< 0.0005
same,"fraction unbound at 24 h, 2000 ng/mL","[7]; male, C57BL6, mouse plasma diluted to 10% v/v in PBS",< 0.0005
same,% Bound,[7]; mouse plasma,> 99.95%
same,Fraction Unbound 4-HPR,[7]; mouse plasma,< 0.0005
same,"fraction unbound at 24 h, 2000 ng/mL",[7]; pooled human plasma diluted to 10% v/v in PBS,< 0.0005
same,Protection of infected mice,[8],70%
same,4-HPR Concentration (equilibrium solubility),"[9]; in Capmul-MCM-EP, 37 °C",34 mg/g and 34 ± 4.3 mg/g
same,4-HPR Concentration (equilibrium solubility),"[9]; in Capryol 90, 37 °C",48 ± 6.0 mg/g
same,4-HPR Concentration (equilibrium solubility),"[9]; in Captex 355 EP/NF, 37 °C",14 ± 0.1 mg/g
same,4-HPR Concentration (equilibrium solubility),"[9]; in Corn oil, 37 °C",3.9 ± 0.2 mg/g
same,4-HPR Concentration (equilibrium solubility),"[9]; in Cremophor EL, 37 °C",10 ± 0.2 mg/g
same,4-HPR Concentration (equilibrium solubility),"[9]; in Ethanol, 37 °C",113 mg/g and 113 ± 1.3 mg/g
same,4-HPR Concentration (equilibrium solubility),"[9]; in Gelucire 44/14, 37 °C",6.0 ± 0.2 mg/g
same,4-HPR Concentration (equilibrium solubility),"[9]; in Kolliphor RH 40, 37 °C",5.5 ± 0.6 mg/g
same,4-HPR Concentration (equilibrium solubility),"[9]; in Labrasol, 37 °C",7.3 ± 0.1 mg/g
same,4-HPR Concentration (equilibrium solubility),"[9]; in Lauroglycol 90, 37 °C",39 mg/g and 39 ± 1.4 mg/g
same,4-HPR Concentration (equilibrium solubility),"[9]; in Maisine 35-1, 37 °C",21 ± 7.6 mg/g
same,4-HPR Concentration (equilibrium solubility),"[9]; in Maisine CC, 37 °C",26 ± 1.6 mg/g
same,4-HPR Concentration (equilibrium solubility),"[9]; in PEG400, 37 °C",82 ± 0.7 mg/g
same,4-HPR Concentration (equilibrium solubility),"[9]; in Polysorbate 80, 37 °C",24 ± 4.9 mg/g
same,4-HPR Concentration (equilibrium solubility),"[9]; in Soybean Oil, 37 °C",2.7 ± 0.1 mg/g
same,4-HPR Concentration (equilibrium solubility),"[9]; in Transcutol, 37 °C",217 ± 8.8 mg/g
same,4-HPR Concentration (equilibrium solubility),"[9]; in Tween 85, 37 °C",71 mg/g and 71 ± 9.1 mg/g
